For the assay, the target named is T1, α7-subtype of nicotinic receptors (Rattus norvegicus, UniProt Q05941).
T1 construct: Cerebral cortices from male Wistar rats (150-250 g) are homogenised; from tissue; host or cells: rat cerebral cortex membrane homogenate (male Wistar rats)
Put plainly: In vitro inhibition of 3H-α-bungarotoxine binding in rat brain. To be noted: rat cerebral cortex homogenate; 3H-α-bungarotoxine 2 nM; 2 hours at 37° C.

The results in this text go back to patent US7750011B2, “Diazabicyclic aryl derivatives and their medical use” (Neurosearch A/S, priority 2005, dated 2010).

Structures can show the parent of a compound that is named as a salt.

T1 sequence (Q05941 23-502): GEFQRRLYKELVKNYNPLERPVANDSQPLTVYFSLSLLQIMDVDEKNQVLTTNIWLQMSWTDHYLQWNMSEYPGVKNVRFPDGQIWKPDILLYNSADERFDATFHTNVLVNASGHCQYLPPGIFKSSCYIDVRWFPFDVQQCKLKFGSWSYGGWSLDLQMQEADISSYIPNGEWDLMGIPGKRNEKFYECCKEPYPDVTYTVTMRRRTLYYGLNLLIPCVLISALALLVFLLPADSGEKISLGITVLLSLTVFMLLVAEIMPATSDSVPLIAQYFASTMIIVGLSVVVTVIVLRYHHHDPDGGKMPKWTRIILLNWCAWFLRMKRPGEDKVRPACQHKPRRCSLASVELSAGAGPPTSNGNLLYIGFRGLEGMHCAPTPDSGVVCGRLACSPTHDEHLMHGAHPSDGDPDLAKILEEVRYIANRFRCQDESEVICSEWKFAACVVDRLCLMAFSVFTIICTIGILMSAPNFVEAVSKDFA

With `CN1C[C@@H]2C[C@H]1CN2c1ccc(C#Cc2ccccc2)nn1` [Compound 2, 2-Methyl-5-(6-phenylethynyl-pyridazin-3-yl)-(1S,4S)-2,5-diaza-bicyclo[2.2.1]heptane fumaric acid salt], the IC50 stood at 2000 nM.

The term IC50 denotes the concentration that gives 50% inhibition. High values mean weaker potency, low ones greater potency.
